Measured values published in paper PMC10147923, “Pain-causing stinging nettle toxins target TMEM233 to modulate NaV1.7 function” (Nature Communications, 2023).
“And” between values parts separate entries of the source, which are not always exact repeats. Equal values may be shown once. Read-outs that look alike come from different tables or passages of the source. Positions of bridges follow the written chain, without caps; N, C: chain ends. Residues, ends and D or L forms follow the SMILES beside them.

Columns and labels:
NaV1.7/PRRT2 = NaV1.7/PRRT2 (Homo sapiens, UniProt Q15858+Q7Z6L0); format: cell-based
hNaV1.6 = experiment: Persistent current, HEK293-hNaV1.6/β1; format: cell-based, human; settings: ExTxA 1 µM; individual cells
NaV1.7 = NaV1.7 (Homo sapiens, UniProt Q15858); format: cell-based; settings: ExTxA 100 nM; individual cells
NaV1.7/TMEM233 = NaV1.7/TMEM233 (Homo sapiens, UniProt B4DJY2+Q15858); format: cell-based; settings: extracellular ExTxA
Description: To determine recovery from fast inactivation, a 20 ms pulse to 0 mV from a holding potential of −90 mV was used to induce fast inactivation. A subsequent recovery period, ranging from 1 ms to 2216 ms in 50% increments at −90 mV, was followed by a last 20 ms test pulses to 0 mV to determine the time-dependence of recovery from fast inactivation. The proportion of available channels was determined by normalizing peak currents from the last to the first pulse. A two-phase exponential equation was fit to the normalized current, plotted as a function of time, to determine the time constants τ1 and τ2 of recovery from fast inactivation.

[1] = system: NaV currents in ND7/23 cells; experiment: Persistent current, ND7/23 cells; format: cell-based; settings: ExTxA 1 µM; individual cells
[2] = system: NaV1.7 endogenously expressed in TE-671 cells; experiment: Persistent NaV current, TE-671 cells (automated patch clamp); format: cell-based
[3] = system: NaV1.7Advill knockout mice; experiment: Nocifensive behaviors after intraplantar injection, NaV1.7Advill mice; format: in vivo, mouse; settings: i.pl. ExTxA 10 nM
From the text: Tmem233^Cre animals were generated and genotyped as previously described, with a Kozak-Cre-pA cassette replacing the ATG start codon of the murine Tmem233 gene to produce a functional knockout in homozygous animals. NaV1.7^Advill mice lacking functional NaV1.7 in all sensory neurons were generated and genotyped as previously described[33] by crossing Advillin-Cre mice with floxed Scn9a animals in which loxP sites were inserted in introns flanking exons 14 and 15[34],[35]. NaV1.9^−/− mice and NaV1.8^Cre/Cre mice, in which Cre recombinase substitutes the translational start-site of NaV1.8, were generated and sequenced as previously described[34],[36],[37].
Nocifensive responses to intraplantar administration of ExTxA (5–10 nM) were assessed as previously described. In brief, ExTxA was diluted in sterile saline/0.1% BSA and administered by an intraplantar injection (40 μL) into a single hind paw of Tmem233^Cre/Cre, NaV1.7^Advill and wild-type littermate controls. Pain behaviors, consisting of paw licks or flinches, were counted from video recordings by a blinded investigator for up to 60 min following injection.

hNaV1.7 = format: cell-based, human
[4] = system: total NaV current in Tmem233Cre/Cre DRG neurons; experiment: Persistent NaV current, Tmem233Cre/Cre DRG neurons; format: cell-based, mouse
hNaV1.4 = experiment: Persistent current, HEK293-hNaV1.4/β1; format: cell-based, human; settings: ExTxA 1 µM
[5] = system: DRG neurons from Tmem233Cre/Cre knockout mice; experiment: Calcium imaging, Tmem233Cre/Cre DRG neurons; format: cell-based, mouse
Description: DRG from all spinal levels were isolated from male and female mice (wild-type C57BL/6 J, Tmem233^Cre/Cre, NaV1.8^Cre/Cre, NaV1.9^−/− or littermate controls) as previously described[36],[38],[39]. For Ca^2+ imaging experiments, DRG neurons were dissociated following incubation with 1% collagenase type IV (Worthington, New Jersey, USA) for 1.5 h (37 °C, 5% CO2) and 2.5% trypsin (Sigma-Aldrich, Montana, USA) for 15 min and resuspended in Dulbecco’s modified Eagle’s medium (DMEM) (Sigma-Aldrich, New South Wales, Australia) supplemented with 10% fetal bovine serum (FBS) (Thermofisher, Massachusetts, USA) and penicillin/streptomycin (Thermofisher, Massachusetts, USA). Following plating in 96-well poly-D-lysine–coated culture plates, isolated neurons were incubated for 24 h at 37 °C with 5% CO2 prior to imaging.
Dissociated DRG neurons from Tmem233^Cre/Cre and C57BL/6 mice were plated on PDL-coated 96-well black-walled imaging plates and loaded with Fluo-4 AM calcium indicator (5 μM) (Invitrogen, Massachusetts, USA) for 1 h in culture medium. Cells were washed with Hanks’ balanced salt solution containing 20 mM HEPES and then transferred to the recording chamber of a Nikon Ti-E Deconvolution inverted microscope equipped with a Lumencor Spectra LED light source. Fluorescence images (excitation, 485 nm; emission, 521 nm) were acquired at 1 frame per second using a ×20 objective. Following the recording of baseline fluorescence (20 s), cells were consecutively exposed to buffer control (0.1% BSA, t = 30 s), ExTxA (10 nM, t = 60 s), and 30 mM KCl (30 mM, t = 210 s). […] Cells responding to buffer control were excluded from analysis.

TE-671 cells = settings: ExTxA 1 µM + veratridine 5 µM + ouabain 20 nM
NaV1.9 = format: cell-based, mouse
[6] = system: NaV currents in F11 cells; experiment: Persistent current, F11 cells; format: cell-based; settings: ExTxA 1 µM; individual cells

Chain of NaV1.7 (Q15858 whole entry): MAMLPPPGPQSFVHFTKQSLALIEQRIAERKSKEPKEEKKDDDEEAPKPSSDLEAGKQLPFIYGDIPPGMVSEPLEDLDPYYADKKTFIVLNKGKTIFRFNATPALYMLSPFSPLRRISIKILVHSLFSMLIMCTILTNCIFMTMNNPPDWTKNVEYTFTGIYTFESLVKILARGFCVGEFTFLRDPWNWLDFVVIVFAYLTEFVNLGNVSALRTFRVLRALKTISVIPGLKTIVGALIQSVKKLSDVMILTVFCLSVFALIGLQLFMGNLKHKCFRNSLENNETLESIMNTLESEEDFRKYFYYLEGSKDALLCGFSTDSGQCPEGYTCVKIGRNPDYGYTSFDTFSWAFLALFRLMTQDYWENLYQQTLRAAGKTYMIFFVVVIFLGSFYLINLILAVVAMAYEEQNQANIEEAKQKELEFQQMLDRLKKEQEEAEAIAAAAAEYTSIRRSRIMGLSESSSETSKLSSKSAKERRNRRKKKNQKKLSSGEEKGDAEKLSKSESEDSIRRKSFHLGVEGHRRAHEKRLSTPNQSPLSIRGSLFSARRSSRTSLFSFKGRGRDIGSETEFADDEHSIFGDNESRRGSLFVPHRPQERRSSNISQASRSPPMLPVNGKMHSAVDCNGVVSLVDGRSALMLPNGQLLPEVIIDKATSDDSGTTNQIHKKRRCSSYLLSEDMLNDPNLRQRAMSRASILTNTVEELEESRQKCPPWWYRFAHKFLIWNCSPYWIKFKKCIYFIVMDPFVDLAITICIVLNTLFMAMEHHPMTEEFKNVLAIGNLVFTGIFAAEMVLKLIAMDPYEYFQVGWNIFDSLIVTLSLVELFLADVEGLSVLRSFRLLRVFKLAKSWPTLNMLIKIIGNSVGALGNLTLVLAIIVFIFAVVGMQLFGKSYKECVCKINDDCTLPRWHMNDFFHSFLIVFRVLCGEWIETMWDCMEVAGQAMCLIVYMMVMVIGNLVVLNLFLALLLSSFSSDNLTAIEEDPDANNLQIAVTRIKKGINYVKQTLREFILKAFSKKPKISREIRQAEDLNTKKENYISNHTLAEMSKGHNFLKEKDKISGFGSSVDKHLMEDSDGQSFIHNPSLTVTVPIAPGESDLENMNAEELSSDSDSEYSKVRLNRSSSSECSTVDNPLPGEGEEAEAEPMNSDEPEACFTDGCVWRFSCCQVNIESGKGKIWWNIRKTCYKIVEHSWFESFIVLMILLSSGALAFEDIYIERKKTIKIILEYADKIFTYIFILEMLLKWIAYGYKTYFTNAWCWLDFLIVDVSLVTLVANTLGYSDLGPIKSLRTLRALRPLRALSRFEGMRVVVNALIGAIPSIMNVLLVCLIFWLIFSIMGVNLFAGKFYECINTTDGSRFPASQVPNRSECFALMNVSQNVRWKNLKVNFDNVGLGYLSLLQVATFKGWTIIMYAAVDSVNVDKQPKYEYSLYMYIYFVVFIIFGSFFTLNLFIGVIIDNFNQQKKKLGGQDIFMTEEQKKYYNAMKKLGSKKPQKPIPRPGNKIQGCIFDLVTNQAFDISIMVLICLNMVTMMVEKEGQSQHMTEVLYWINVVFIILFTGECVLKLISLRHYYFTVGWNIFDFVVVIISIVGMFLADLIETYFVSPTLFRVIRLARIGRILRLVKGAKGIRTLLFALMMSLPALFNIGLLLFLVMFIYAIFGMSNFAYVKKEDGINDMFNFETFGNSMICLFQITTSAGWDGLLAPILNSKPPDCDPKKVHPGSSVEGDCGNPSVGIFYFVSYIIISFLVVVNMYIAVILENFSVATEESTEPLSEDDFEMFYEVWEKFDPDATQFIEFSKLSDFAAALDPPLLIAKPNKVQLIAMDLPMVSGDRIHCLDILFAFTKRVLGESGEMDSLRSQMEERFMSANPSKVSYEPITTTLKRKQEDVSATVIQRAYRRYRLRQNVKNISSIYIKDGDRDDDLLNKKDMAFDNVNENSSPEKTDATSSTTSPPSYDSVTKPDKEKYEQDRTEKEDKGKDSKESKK
Chain of NaV1.7 (Q07699 19-218, further chain): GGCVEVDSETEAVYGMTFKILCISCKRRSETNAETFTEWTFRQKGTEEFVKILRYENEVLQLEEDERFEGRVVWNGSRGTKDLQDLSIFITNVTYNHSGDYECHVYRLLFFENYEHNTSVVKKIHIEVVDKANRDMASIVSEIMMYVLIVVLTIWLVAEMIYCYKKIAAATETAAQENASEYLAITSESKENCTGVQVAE
Chain of NaV1.7/PRRT2 (Q7Z6L0 whole entry): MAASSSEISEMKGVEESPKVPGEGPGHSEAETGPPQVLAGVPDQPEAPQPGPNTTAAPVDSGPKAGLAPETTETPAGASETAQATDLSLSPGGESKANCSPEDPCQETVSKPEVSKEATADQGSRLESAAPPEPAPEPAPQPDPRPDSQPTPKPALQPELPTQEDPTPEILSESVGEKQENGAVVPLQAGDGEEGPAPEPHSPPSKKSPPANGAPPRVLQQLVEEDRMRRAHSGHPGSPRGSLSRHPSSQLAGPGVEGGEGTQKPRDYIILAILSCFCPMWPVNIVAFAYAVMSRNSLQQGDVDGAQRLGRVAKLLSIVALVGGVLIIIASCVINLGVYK
Chain of NaV1.7/PRRT2 (Q07699 19-218, further chain): as the sequence (Q07699 19-218, further chain) above
Chain of NaV1.7/PRRT2 (Q15858 whole entry): as the sequence (Q15858 whole entry) above

With `CC[C@H](C)[C@@H]1NC(=O)[C@H](CCCNC(=N)N)NC(=O)[C@H](Cc2ccccc2)NC(=O)[C@H](CC(C)C)NC(=O)[C@H](CO)NC(=O)[C@@H]2CSSC[C@@H]3NC(=O)[C@H]([C@@H](C)O)NC(=O)[C@H](CSSC[C@H](NC(=O)[C@H](CCCNC(=N)N)NC(=O)[C@@H]4CCCN4C(=O)[C@@H](N)CC(C)C)C(=O)N[C@@H](CC(=O)O)C(=O)N[C@@H](CO)C(=O)N4CCC[C@H]4C(=O)N[C@@H](Cc4ccccc4)C(=O)N2)NC(=O)[C@H](CCCCN)NC(=O)[C@H](CC(=O)O)NC(=O)CNC(=O)[C@H](CSSC[C@@H](C(=O)N[C@H](C(=O)N2CCC[C@H]2C(=O)N[C@@H](CC(=O)O)C(=O)N[C@H](C(=O)O)C(C)C)C(C)C)NC(=O)[C@H](CC(C)C)NC(=O)CNC(=O)[C@H](Cc2ccccc2)NC(=O)[C@H]([C@@H](C)CC)NC(=O)[C@@H]2CCCN2C(=O)[C@H](CC(C)C)NC(=O)[C@@H]2CCCN2C(=O)[C@H](C(C)C)NC3=O)NC(=O)[C@H](CC(C)C)NC(=O)CNC1=O` [ExTxA, excelsatoxin A] (H-LPRCDSPFCSLFRIGLCGDKCTCVPLPIFGLCVPDV-OH; disulfide 4-21, 9-23, 17-32) the LogEC50 (NaV1.7/PRRT2; Nav1.7/PRRT2, 95% CI -6.892 to -6.214, Fig 4g) was -6.331, the HillSlope (NaV1.7/PRRT2; Nav1.7/PRRT2, Fig 4g) was 0.9384 and the Top (NaV1.7/PRRT2; Nav1.7/PRRT2, best-fit, constraint Top < 1, Fig 4g) was 0.7711. For the same molecule, the “ExTxA-induced currents with PRRT2” value (NaV1.7/PRRT2; co-expression with NaV1.7) was “resulted in ExTxA-induced persistent currents”, the “persistent current (I40 ms/Ipeak)” value (hNaV1.6) was -0.07037 and 0.003531 and 0.01691 and 0.001263 and 0.000702 and -0.00068 and -0.03041 and 0.01768 and the “hiPSC-derived sensory neurons persistent current (I40 ms/Ipeak)” value (NaV1.7) was 0.1753 and 0.2081 and 0.0959 and 0.1857 and 0.092. For the same molecule, the “time constants of recovery from inactivation” value (NaV1.7/TMEM233) was “a decrease in the time constants of recovery from inactivation”, the “persistent current (I40 ms/Ipeak)” value [1] was 0.0148 and -0.04643 and -0.01725 and -0.02481 and 0.06313 and -0.01347 and 0.009823 and -0.02206 and -0.05173 and 0.0293 and -0.02358 and the “ExTxA-induced persistent current (I40 ms/Ipeak; nA)” value [2] was 0.8135. For the same molecule, the “persistent current (I40 ms/Ipeak)” value [2] was 0.8735 and 0.8209 and 0.7837 and 0.8022 and 0.7553 and 0.8064 and 0.8529, the “Mean Diff. of persistent current, Buffer vs. ExTxA” value ([2]; ExTxA 100 nM) was -0.2502 and the “TE-671 persistent current (I40 ms/Ipeak)” value ([2]; ExTxA 100 nM, individual cells) was 0.226 and 0.2237 and 0.255 and 0.3482 and 0.2794 and 0.2574 and 0.2313 and 0.3524. The “TE-671 persistent current (I40 ms/Ipeak)” value ([2]; ExTxA 100 nM, mean, n = 8) was 0.272 ± 0.018 and 0.2717, the “persistent current (I40 ms/Ipeak)” value ([2]; ExTxA 1 µM, individual cells) was 0.6558 and 0.8078 and 0.6143 and 0.6966 and 0.7266 and 0.5751 and 0.7653 and 0.7674 and 0.8038 and 0.7341 and 0.767 and the “Δ persistent current (I40 ms/Ipeak; buffer cf. ExTxA)” value ([2]; ExTxA 1 µM, mean) was 0.719 ± 0.0230 and 0.7194. The “ExTxA-induced persistent current (I40 ms/Ipeak; nA)” value ([2]; ExTxA 1 µM, wildtype TE-671 (Fig. 3d), mean, n = 7) was 0.81 ± 0.015, the “Difference between means (B - A), wildtype minus Scn9a-/-” value [3] was 279.3 ± 22.82 and the “nocifensive responses in knockout mice” value [3] was “abolished”. The “cumulative flinches (60 min)” value ([3]; 40 μL, NaV1.7Advill, mean, n = 4) was 40.0 ± 6.5 and 40, the “cumulative flinches (60 min)” value ([3]; NaV1.7Advill (Scn9a-/-), individual animals) was 32 and 43 and 57 and 28 and the “persistent current, Predicted (LS) mean diff.” value (hNaV1.7) was -0.04169. For the same molecule, the “persistent current (I40 ms/Ipeak)” value (hNaV1.7; ExTxA 100 nM in ECS, mean ± SEM, n = 10) was 0.04 ± 0.014, the “persistent current (I40 ms/Ipeak)” value (hNaV1.7; ExTxA 100 nM in ICS, mean ± SEM, n = 10) was -0.002 ± 0.004 and the persistent current (hNaV1.7; ExTxA 1 µM, HEK NaV1.7/β1, individual cells) was -10.167 pA and -21.3045 pA and 17.0051 pA and 11.4493 pA and -20.8771 pA and -5.293 pA and -9.443 pA and -10.0671 pA and 5.003 pA and -11.1496 pA and -2.37 pA. The “persistent current (I40 ms/Ipeak)” value (hNaV1.7; ExTxA 1 µM, individual cells) was -0.00096 and -0.00393 and -0.00509 and -0.00016 and 0.00507 and -0.00078 and -0.00158 and -0.00022 and -9.8e-6 and 0.000228 and 0.002683, the “persistent current, Mean diff, A2 - B2” value [4] was 0.4591 and the “ExTxA-induced persistent current (I40ms/Ipeak; nA) in DRG neurons” value ([4]; ExTxA 30 nM, Tmem233Cre KO, mean ± SEM, n = 7) was 0.114 ± 0.04. For the same molecule, the “persistent current (I40 ms/Ipeak)” value (hNaV1.4; individual cells) was -0.00323 and 0.000561 and 0.001128 and 1.82e-5 and 3.19e-5 and 0.001575 and 0.001393 and -0.00031 and -0.00116, the “Δ persistent current (I40 ms/Ipeak; buffer cf. ExTxA)” value (hNaV1.4; mean) was 7.89E-07 ± 0.0005 and 7.889e-7 and the “ExTxA-induced DRG Ca2+ responses” value ([5]; ExTxA 10 nM, Tmem233Cre KO, Fluo-4, >1.5-fold increase, mean ± SEM, n = 7 wells) was 22.33 ± 1.942 % neurons activated. For the same molecule, the “calcium imaging response (Fig. 3f)” value ([5]; KO, individual values, one line each (n = 7)) was 24.6269 and 21.831 and 19.2118 and 28.0374 and 12.6582 and 26.1905, the “calcium imaging response (Fig. 3f), Mean” value ([5]; KO, mean, number of values 7, Std. Deviation 5.137, SEM 1.942) was 22.33 and the “calcium imaging response (Fig. 3f), Median” value ([5]; KO, median, number of values 7) was 23.77. The “effect of gene knockdown on ExTxA cytotoxicity” value (TE-671 cells) was “prevented by the knockdown of SCN9A (the gene encoding the NaV1.7 α subunit) as well as ten other genes (RNF121, GPAA1, PIGT, CRELD1, PIGK, STT3B, TMEM233, PIGS, MMGT1, and LMAN2L), and exacerbated by knockdown of SPAG5, TMEM161B and NEDD4L”, the “DRG NaV1.9 Δ persistent current (I90 ms/Ipeak)” value (NaV1.9) was -0.057 ± 0.028 and the “persistent current (I40 ms/Ipeak)” value [6] was 0.004557 and -0.00296 and -0.00917 and -0.00017 and -0.00072 and 0.02041.
